Assay results reported in patent US20170150719A1, “FUNGICIDAL PYRAZOLES AND THEIR MIXTURES” (E I DU PONT DE NEMOURS AND COMPANY, priority 2010, published 2017).
Marks after values point to notes of the source that are not given here.

Key:
[1] = tested on: Puccinia recondita f. sp. tritici; test: Test G: wheat leaf rust, spray after inoculation (curative) on wheat seedlings, visual disease rating; assay type: in vivo; conditions: 100 = 100% disease control; for Test G rating (% disease control): spray after inoculation, rating without asterisk; for Test G rating (disease control) / pest or weed control at 200 µg/mL: sprayed after inoculation, 0 = no disease control
Text: (§1) A hyphen (-) indicates no test results.

[2] = tested on: Blumeria graminis f. sp. tritici; test: Test I: wheat powdery mildew, preventive spray on wheat seedlings, visual disease rating; conditions: for Test I rating (% disease control): preventive spray, rating without asterisk; for Test I rating (% disease control) / Test I rating (disease control) / pest or weed control at 200 µg/mL: 100 = 100% disease control; for Test I rating (disease control) / pest or weed control at 200 µg/mL: 0 = no disease control relative to the controls; for pest or weed control at 200 µg/mL: Blumeria graminis, in Triticum aestivum, read-out: Test I rating (disease control), wheat powdery mildew
[3] = tested on: Puccinia recondita f. sp. tritici; test: Test H: wheat leaf rust, preventive spray on wheat seedlings, visual disease rating; conditions: 100 = 100% disease control; for Test H rating (% disease control) / Test H rating (disease control): wheat leaf rust; for Test H rating (% disease control): preventive spray, rating without asterisk; for Test H rating (disease control): sprayed the day before inoculation; for Test H rating (disease control) / pest or weed control at 200 µg/mL: 0 = no disease control; for pest or weed control at 200 µg/mL: read-out: Test H rating (disease control), wheat leaf rust, sprayed the day before inoculation
Septoria tritici = test: Test F: wheat leaf blotch, preventive spray on wheat seedlings, visual disease rating; assay type: in vivo; conditions: 100 = 100% disease control; for Test F rating (% disease control): preventive spray, rating without asterisk; for Test F rating (disease control) / pest or weed control at 200 µg/mL: 0 = no disease control relative to the controls; for pest or weed control at 200 µg/mL: Zymoseptoria tritici
Text: as §1

Alternaria solani = test: Test B: tomato early blight, preventive spray on tomato seedlings, visual disease rating; conditions: for Test B rating (% disease control) / Test B rating (disease control): tomato early blight, 100 = 100% disease control; for Test B rating (% disease control): preventive spray, rating without asterisk; for Test B rating (disease control): 0 = no disease control relative to the controls; for pest or weed control at 200 µg/mL: Alternaria solani, in Solanum lycopersicum, read-out: Test B rating (disease control)
Septoria nodorum = test: Test E: Septoria glume blotch, preventive spray on wheat seedlings, visual disease rating; conditions: 100 = 100% disease control; for Test E rating (% disease control): Septoria glume blotch on wheat, preventive spray, rating without asterisk; for Test E rating (disease control): Septoria glume blotch; for Test E rating (disease control) / pest or weed control at 200 µg/mL: 0 = no disease control relative to the controls; for pest or weed control at 200 µg/mL: Parastagonospora nodorum, in Triticum aestivum, read-out: Test E rating (disease control), Septoria glume blotch
Botrytis cinerea = test: Test A: tomato Botrytis, preventive spray on tomato seedlings, visual disease rating; conditions: 100 = 100% disease control; for Test A rating (% disease control) / Test A rating (disease control): tomato Botrytis; for Test A rating (% disease control): preventive spray, 0 = no control relative to controls, rating without asterisk; for Test A rating (disease control) / pest or weed control at 200 µg/mL: 0 = no disease control relative to the controls; for pest or weed control at 200 µg/mL: Botrytis cinerea, in Solanum lycopersicum, read-out: Test A rating (disease control), tomato Botrytis

Structure (SMILES) | Test G rating (disease control) [1] [%] | Test I rating (disease control) ([2]; wheat powdery mildew) [%] | Test H rating (disease control) [3] [%] | Test F rating (disease control) (Septoria tritici) [%] | Test B rating (disease control) (Alternaria solani) [%] | Test E rating (disease control) (Septoria nodorum) [%] | Test A rating (disease control) (Botrytis cinerea) [%] | pest or weed control at 200 µg/mL [1] [%] | pest or weed control at 200 µg/mL [2] [%] | pest or weed control at 200 µg/mL [3] [%] | pest or weed control at 200 µg/mL (Septoria tritici) [%] | pest or weed control at 200 µg/mL (Alternaria solani) [%] | pest or weed control at 200 µg/mL (Septoria nodorum) [%] | pest or weed control at 200 µg/mL (Botrytis cinerea) [%] | further results
Cc1nn(C)c(Nc2c(F)cc(Cl)cc2F)c1-c1ccc(Cl)cc1F [compound 230] |  |  |  |  |  |  |  |  |  |  |  |  |  |  | Test G rating (% disease control) [1]: 0%; Test I rating (% disease control) ([2]; wheat powdery mildew): 95%; Test H rating (% disease control) [3]: 94%; Test F rating (% disease control) (Septoria tritici): 100%; Test B rating (% disease control) (Alternaria solani): 0%; Test E rating (% disease control) (Septoria nodorum): 0%; Test A rating (% disease control) (Botrytis cinerea): 40%
Cc1nn(C)c(Nc2c(F)cc(F)cc2F)c1-c1c(F)cccc1Cl [compound 56] | 0 | 99 | 97 | 100 | 100 | 0 | 98 |  |  |  |  |  |  |  | 
Cc1nn(C)c(Nc2c(F)cc(C#N)cc2F)c1-c1c(F)cccc1Cl [compound 57] | 0 | 99 | 99 | 100 | 100 | 73 | 97 |  |  |  |  |  |  |  | 
Cc1nn(C)c(Nc2ccc(F)cc2F)c1-c1c(F)cccc1F [compound 49] | 0 | 100 | 83 | 98 | 100 | 80 | 100 |  |  |  |  |  |  |  | 
Cc1nn(C)c(Oc2ccc(C#N)cc2Cl)c1-c1ccc(F)cc1Cl [Compound 37, 3-chloro-4-[[4-(2-chloro-4-fluorophenyl)-1,3-dimethyl-1H-pyrazol-5-yl]oxy]benzonitrile] |  |  |  |  |  |  |  | 69 | 100 | 99 | 100 | 86 | 100 | 100 | 
Cc1nn(C)c(Oc2ccc(C#N)cc2Cl)c1-c1c(F)cccc1F [Compound 127, 3-chloro-4-[[4-(2,6-difluorophenyl)-1,3-dimethyl-1H-pyrazol-5-yl]oxy]benzonitrile] |  |  |  |  |  |  |  | 0 | 97 | 97 | 100 | 0 | 0 | 99 | 
Cc1nn(C)c(Nc2c(F)cc(Cl)cc2I)c1-c1ccc(F)cc1Cl [compound 182] |  |  |  |  |  |  |  |  |  |  |  |  |  |  | Test G rating (% disease control) [1]: 100%; Test I rating (% disease control) ([2]; wheat powdery mildew): 100%; Test H rating (% disease control) [3]: 100%; Test F rating (% disease control) (Septoria tritici): 100%; Test B rating (% disease control) (Alternaria solani): 100%; Test E rating (% disease control) (Septoria nodorum): 100%; Test A rating (% disease control) (Botrytis cinerea): 100%
Cc1nn(C)c(Nc2c(F)cc(C#N)cc2F)c1-c1ccc(F)cc1Cl [Compound 25, 4-[[4-(2-chloro-4-fluorophenyl)-1,3-dimethyl-1H-pyrazol-5-yl]amino]-3,5-difluorobenzonitrile] |  |  |  |  |  |  |  | 0 | 100 | 100 | 99 | 99 | 95 | 100 | 
Cc1nn(C)c(Nc2c(F)cc(F)cc2F)c1-c1ccc(F)cc1Cl [Compound 4, 4-(2-chloro-4-fluorophenyl)-1,3-dimethyl-N-(2,4,6-trifluorophenyl)-1H-pyrazol-5-amine] |  |  |  |  |  |  |  | 99 | 100 | 100 | 95 | 100 | 99 | 99 | 
COc1ccc(Nc2c(-c3ccc(F)cc3F)c(C)nn2C)c(Cl)c1 [compound 66] | 0 | 100 | 91 | 100 | 37 | 0 | 99 |  |  |  |  |  |  |  | 
Cc1nn(C)c(Oc2ccc(C#N)cc2Cl)c1-c1ccc(Cl)cc1Cl [compound 131] | 0 | 96 | 96 | 100 | 0 | 0 | 100 |  |  |  |  |  |  |  | 
Cc1nn(C)c(Nc2c(F)cc(F)cc2F)c1-c1ccc(F)cc1Br [Compound 74, 4-(2-bromo-4-fluorophenyl)-1,3-dimethyl-N-(2,4,6-trifluorophenyl)-1H-pyrazol-5-amine] |  |  |  |  |  |  |  | 0 | 100 | 100 | 100 | 100 | 98 | 100 | 
Cc1nn(C)c(Nc2c(F)cccc2F)c1-c1ccc(F)cc1Cl [Compound 46, 4-(2-chloro-4-fluorophenyl)-N-(2,6-difluorophenyl)-1,3-dimethyl-1H-pyrazol-5-amine] |  |  |  |  |  |  |  | 0 | 100 | 99 | 100 | 100 | 87 | 100 | 
Cc1nn(C)c(Oc2ccc(C#N)cc2F)c1-c1c(F)cc(F)cc1F [compound 27] | 9 | 100 | 99 | 100 | 99 | 99 | 99 |  |  |  |  |  |  |  | 
COc1ccc(-c2c(C)nn(C)c2Nc2c(F)cc(F)cc2I)c(Cl)c1 [compound 219] |  |  |  |  |  |  |  |  |  |  |  |  |  |  | Test G rating (% disease control) [1]: 99%; Test I rating (% disease control) ([2]; wheat powdery mildew): 99%; Test H rating (% disease control) [3]: 100%; Test F rating (% disease control) (Septoria tritici): 100%; Test B rating (% disease control) (Alternaria solani): 100%; Test E rating (% disease control) (Septoria nodorum): 100%; Test A rating (% disease control) (Botrytis cinerea): 100%
COc1cc(F)c(Nc2c(-c3c(F)cccc3F)c(C)nn2C)c(F)c1 [compound 72] | 0 | 98 | 97 | 100 | 99 | 0 | 100 |  |  |  |  |  |  |  | 
Cc1nn(C)c(Nc2ccc(C#N)cc2Cl)c1-c1ccc(F)cc1Cl [compound 44] | 8 | 94 | 98 | 99 | 0 | 0 | 99 |  |  |  |  |  |  |  | 
Cc1nn(C)c(Nc2ccc(Br)cc2F)c1-c1ccc(F)cc1F [compound 154] | 68 | 99 | 98 | 100 | 9 | 0 | 100 |  |  |  |  |  |  |  | 
Cc1nn(C)c(Oc2ccc(C#N)cc2F)c1-c1c(F)cccc1Cl [compound 116] | 0 | 100 | 100 | 100 | 33 | 99 | 100 |  |  |  |  |  |  |  | 
COc1cc(Cl)c(Nc2c(-c3ccc(F)cc3Cl)c(C)nn2C)c(Cl)c1 [compound 85] | 0 |  | 99 | 100 | 0 | 0 | 99 |  |  |  |  |  |  |  | Test I rating (disease control), value marked * ([2]; wheat powdery mildew, rating marked with asterisk (*), not explained in the text shown): 99* %
